Target: IDH1 R132H (Homo sapiens (Human), UniProt O75874, R132H)
Assay: In vitro assay for IDH1m (R132H) inhibitors, NADPH depletion with resazurin/resorufin detection
Format: biochemical
Details: IDH1 R132H enzyme, 50 minutes at room temperature; read-out: IDH R132H IC50
Procedure: Assays were conducted in a volume of 76 μl assay buffer (150 mM NaCl, 10 mM MgCl2, 20 mM Tris pH 7.5, 0.03% bovine serum albumin) as follows in a standard 384-well plate: To 25 ul of substrate mix (8 uM NADPH, 2 mM aKG), 1 μl of test compound was added in DMSO. The plate was centrifuged briefly, and then 25 μl of enzyme mix was added (0.2 μg/ml IDH1 R132H) followed by a brief centrifugation and shake at 100 RPM. The reaction was incubated for 50 minutes at room temperature, then 25 μl of detection mix (30 μM resazurin, […]) was added and the mixture further incubated for 5 minutes at room temperature. The conversion of resazurin to resorufin was detected by fluorescent spectroscopy at Ex544 Em590 c/o 590.
Representative compounds of formula (I) set forth in Tables 1 and 2 were tested in this assay and the results are set forth below in Table 4.

IDH1 R132H, sequence (O75874 whole entry R132H): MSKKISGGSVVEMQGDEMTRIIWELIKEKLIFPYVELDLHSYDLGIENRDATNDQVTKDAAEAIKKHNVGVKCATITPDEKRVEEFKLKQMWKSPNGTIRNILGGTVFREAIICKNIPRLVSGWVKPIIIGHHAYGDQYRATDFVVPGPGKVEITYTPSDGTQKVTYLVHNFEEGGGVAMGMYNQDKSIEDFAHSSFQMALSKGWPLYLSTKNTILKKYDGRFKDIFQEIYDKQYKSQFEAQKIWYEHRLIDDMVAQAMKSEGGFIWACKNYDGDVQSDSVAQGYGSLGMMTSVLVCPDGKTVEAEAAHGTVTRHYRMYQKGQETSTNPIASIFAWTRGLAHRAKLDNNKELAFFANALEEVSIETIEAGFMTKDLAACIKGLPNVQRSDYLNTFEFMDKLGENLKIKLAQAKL

Cc1ccc(NC(=O)Nc2ccc(F)c(F)c2F)cc1S(=O)(=O)Nc1ccc(Cl)cc1 [Compound 248]
IC50: 1 to 10 µM

Cc1ccc(NC(=O)Nc2cc(Cl)ccc2[N+](=O)[O-])cc1S(=O)(=O)Nc1ccc(Cl)cc1 [Compound 243]
IC50: 1 to 10 µM

Cc1ccc(NC(=O)Nc2ccccc2)cc1S(=O)(=O)Nc1ccc(Cl)cc1 [Compound 213]
IC50: 1 to 10 µM

Cc1ccc(NC(=O)Nc2ccc(F)c(Cl)c2)cc1S(=O)(=O)Nc1ccc(Cl)cc1 [Compound 228]
IC50: 1 to 10 µM

CCOC(=O)COc1ccc(NS(=O)(=O)c2cc(NC(=O)Nc3cccc(C(F)(F)F)c3)ccc2C)cc1 [Compound 308]
IC50: 1 to 10 µM

COc1ccc(Cl)cc1NC(=O)Nc1ccc(C)c(S(=O)(=O)Nc2ccc(Cl)cc2)c1 [Compound 270]
IC50: 1 to 10 µM

Cc1ccc(NC(=O)Nc2cccc(C(F)(F)F)c2)cc1S(=O)(=O)N1CCNCC1 [Compound 323]
IC50: 1 to 10 µM

Cc1ccc(NC(=O)Nc2cccc(Cl)c2)cc1S(=O)(=O)Nc1ccc(Cl)cc1 [Compound 215]
IC50: 1 to 10 µM

Cc1ccc(NC(=O)N[C@@H](C)c2cccc3ccccc23)cc1S(=O)(=O)Nc1ccc(Cl)cc1 [Compound 288]
IC50: 1 to 10 µM

Cc1ccc(NC(=O)Nc2c(C)cc(Br)cc2C)cc1S(=O)(=O)Nc1ccc(Cl)cc1 [Compound 239]
IC50: 1 to 10 µM

Cc1ccc(NC(=O)Nc2ccc(C(F)(F)F)cc2Cl)cc1S(=O)(=O)Nc1ccc(Cl)cc1 [Compound 231]
IC50: 1 to 10 µM

COC(=O)c1cccc(NC(=O)Nc2ccc(C)c(S(=O)(=O)Nc3ccc(Cl)cc3)c2)c1 [Compound 276]
IC50: 1 to 10 µM

Cc1ccc(NC(=O)Nc2ccc(C(F)(F)F)cc2)cc1S(=O)(=O)Nc1ccc(Cl)cc1 [Compound 222, N-(4-chlorophenyl)-2-methyl-5-(3-(4-(trifluoromethyl)phenyl)ureido)benzenesulfonamide]
IC50: 1 to 10 µM

Cc1ccc(NC(=O)Nc2cccc(C(F)(F)F)c2)cc1S(=O)(=O)Nc1ccc(Cl)cc1 [Compound 221, N-(4-chlorophenyl)-2-methyl-5-(3-(3(trifluoromethyl)phenyl)ureido)benzenesulfonamide]
IC50: 1 to 10 µM

Cc1cccc(NC(=O)Nc2ccc(C)c(S(=O)(=O)Nc3ccc(Cl)cc3)c2)c1 [Compound 249]
IC50: 1 to 10 µM

CSc1ccc(NC(=O)Nc2ccc(C)c(S(=O)(=O)Nc3ccc(Cl)cc3)c2)cc1 [Compound 274]
IC50: 1 to 10 µM

CCc1ccc(NC(=O)Nc2cccc(C(F)(F)F)c2)cc1S(=O)(=O)Nc1ccc(Cl)cc1 [Compound 333]
IC50: 1 to 10 µM

Cc1ccc(NC(=O)Nc2ccc(F)cc2[N+](=O)[O-])cc1S(=O)(=O)Nc1ccc(Cl)cc1 [Compound 245]
IC50: 1 to 10 µM

Cc1ccc(NC(=O)Nc2ccc([N+](=O)[O-])cc2Cl)cc1S(=O)(=O)Nc1ccc(Cl)cc1 [Compound 244]
IC50: 1 to 10 µM

Cc1ccc(NC(=O)Nc2ccc(F)c(Cl)c2)cc1S(=O)(=O)Nc1ccccc1 [Compound 209]
IC50: 1 to 10 µM

Cc1ccc(NC(=O)Nc2c(C)cccc2C)cc1S(=O)(=O)Nc1ccc(Cl)cc1 [Compound 257]
IC50: 1 to 10 µM

Cc1ccc(NC(=O)Nc2cccc(C(F)(F)F)c2)cc1S(=O)(=O)Nc1cccc2ncccc12 [Compound 321]
IC50: 1 to 10 µM

Cc1ccc(NC(=O)Nc2cccc(C(F)(F)F)c2)cc1S(=O)(=O)Nc1ccc(F)c(Cl)c1 [Compound 299]
IC50: 1 to 10 µM

Cc1ccc(NC(=O)Nc2ccc(Cl)c([N+](=O)[O-])c2)cc1S(=O)(=O)Nc1ccc(Cl)cc1 [Compound 242]
IC50: 1 to 10 µM

Cc1cc(NC(=O)Nc2ccc(C)c(S(=O)(=O)Nc3ccc(Cl)cc3)c2)ccc1Br [Compound 237]
IC50: 1 to 10 µM

Cc1cccc(CNC(=O)Nc2ccc(C)c(S(=O)(=O)Nc3ccc(Cl)cc3)c2)c1 [Compound 282]
IC50: 1 to 10 µM

Cc1ccc(NC(=O)Nc2ccc(F)c(F)c2)cc1S(=O)(=O)Nc1ccc(Cl)cc1 [Compound 230]
IC50: 1 to 10 µM

COc1ccc(NC(=O)Nc2ccc(C)c(S(=O)(=O)Nc3ccc(Cl)cc3)c2)cc1 [Compound 267]
IC50: 1 to 10 µM

Cc1ccc(NC(=O)Nc2cccc(C(F)(F)F)c2)cc1S(=O)(=O)Nc1ccccc1F [Compound 295]
IC50: 1 to 10 µM

Cc1ccc(NC(=O)Nc2cccc([N+](=O)[O-])c2C)cc1S(=O)(=O)Nc1ccc(Cl)cc1 [Compound 264]
IC50: 1 to 10 µM

CCc1cccc(NC(=O)Nc2ccc(C)c(S(=O)(=O)Nc3ccc(Cl)cc3)c2)c1 [Compound 251]
IC50: 1 to 10 µM

Cc1ccc(NC(=O)Nc2ccc(I)cc2)cc1S(=O)(=O)Nc1ccc(Cl)cc1 [Compound 220]
IC50: 1 to 10 µM

Cc1ccc(NC(=O)Nc2ccsc2)cc1S(=O)(=O)Nc1ccc(Cl)cc1 [Compound 289]
IC50: 1 to 10 µM

COc1cc(NC(=O)Nc2ccc(C)c(S(=O)(=O)Nc3ccc(Cl)cc3)c2)cc(OC)c1 [Compound 269]
IC50: 1 to 10 µM

Cc1ccc(NC(=O)Nc2c(Cl)cc(F)cc2Br)cc1S(=O)(=O)Nc1ccc(Cl)cc1 [Compound 247]
IC50: 1 to 10 µM

Cc1ccc(NC(=O)Nc2cccc(C(F)(F)F)c2)cc1S(=O)(=O)Nc1ccc(F)cc1 [Compound 297]
IC50: 1 to 10 µM

COc1ccc(OC)c(NC(=O)Nc2ccc(C)c(S(=O)(=O)Nc3ccc(Cl)cc3)c2)c1 [Compound 268]
IC50: 1 to 10 µM

Cc1ccc(NC(=O)Nc2ccc(OC(F)(F)F)cc2)cc1S(=O)(=O)Nc1ccc(Cl)cc1 [Compound 225, N-(4-chlorophenyl)-2-methyl-5-(3-(4-(trifluoromethoxy)phenyl)ureido)benzenesulfonamide]
IC50: 1 to 10 µM

Cc1ccc(NC(=O)Nc2ccccc2Cc2ccccc2)cc1S(=O)(=O)Nc1ccc(Cl)cc1 [Compound 285]
IC50: 1 to 10 µM

C#Cc1cccc(NC(=O)Nc2ccc(C)c(S(=O)(=O)Nc3ccccc3)c2)c1 [Compound 211]
IC50: 1 to 10 µM

Cc1ccc(NC(=O)Nc2ccc(C)c(S(=O)(=O)Nc3ccc(Cl)cc3)c2)cc1Cl [Compound 235]
IC50: 1 to 10 µM

CCCOc1ccc(NS(=O)(=O)c2cc(NC(=O)Nc3cccc(C(F)(F)F)c3)ccc2C)cc1 [Compound 305]
IC50: 1 to 10 µM

Cc1ccc(NC(=O)Nc2cccc(S(=O)(=O)Nc3ccccc3)c2)cc1S(=O)(=O)Nc1ccc(Cl)cc1 [Compound 334]
IC50: 1 to 10 µM

Cc1ccc(NC(=O)Nc2ccc(Cl)cc2)cc1S(=O)(=O)Nc1ccccc1 [Compound 205]
IC50: 1 to 10 µM

COc1cc(OC)c(NC(=O)Nc2ccc(C)c(S(=O)(=O)Nc3ccc(Cl)cc3)c2)cc1Cl [Compound 271]
IC50: 1 to 10 µM

CC(=O)Nc1ccc(NS(=O)(=O)c2cc(NC(=O)Nc3ccc(C(F)(F)F)cc3)ccc2C)cc1 [Compound 329]
IC50: 1 to 10 µM

Cc1ccc(NC(=O)Nc2ccc(C(C)C)cc2)cc1S(=O)(=O)Nc1ccc(Cl)cc1 [Compound 254]
IC50: 1 to 10 µM

Cc1ccc(NC(=O)Nc2ccc(C(F)(F)F)cc2)cc1S(=O)(=O)Nc1ccccc1 [Compound 207, 2-methyl-N-phenyl-5-(3-(4-(trifluoromethyl)phenyl)ureido)benzenesulfonamide]
IC50: 1 to 10 µM

COc1cccc(NC(=O)Nc2ccc(C)c(S(=O)(=O)Nc3ccc(Cl)cc3)c2)c1 [Compound 266]
IC50: 1 to 10 µM

Cc1cc(F)ccc1NS(=O)(=O)c1cc(NC(=O)Nc2cccc(C(F)(F)F)c2)ccc1C [Compound 298]
IC50: 1 to 10 µM

CCc1ccc(NC(=O)Nc2ccc(C)c(S(=O)(=O)Nc3ccc(Cl)cc3)c2)cc1 [Compound 252]
IC50: 1 to 10 µM

CSc1cccc(NC(=O)Nc2ccc(C)c(S(=O)(=O)Nc3ccc(Cl)cc3)c2)c1 [Compound 273]
IC50: 1 to 10 µM

Source: US10202339B2, “Therapeutic compounds and compositions” (AGIOS PHARMACEUTICALS, INC., priority 2012, dated 2019)
